{"source": "patent US8552035B2", "about": "“Phenanthrenone compounds, compositions and methods” (Pfizer Inc., priority 2008, dated 2013)", "key": {"[1]": {"test_system": "Mouse collagen-induced arthritis", "experiment": "Therapeutic mouse collagen-induced arthritis (mCIA)", "format": "in vivo", "excerpt": "Mouse Collagen-induced arthritis is a commonly used chronic, preclinical model of rheumatoid arthritis in which joint swelling and bone destruction occur following immunization with type II collagen. Reduction of disease incidence and severity has been shown previously to be predictive of disease-modification and signs and symptoms mitigation, respectively, in a clinical setting.\nIn the therapeutic mCIA model, induction of disease incidence and severity was synchronized via LPS stimulation. Male DBA/J mice were immunized with 100 ug of bovine type II collagen (bCII) on day 0. All mice received an intraperitoneal injection of 20 μg of LPS on day 28 and disease was allowed to develop through day 34. At day 34, all mice had disease (incidence=100%) with an average severity score of seven. Dosing of compounds was initiated in the therapeutic mode on day 34 and continued through day 49. Different treatments were compared by measuring the decrease in incidence (i.e., resolution of disease) and the decrease in severity of paw swelling over time.\nED50 and ED80 values are obtained for the various parameters using four-parameter logistic fits of data. For each experiment/dose group, outliers are detected by calculating the number of standard deviations each mouse's value was from the mean of their group and then dividing by the standard deviation of the group. The means and standard deviations used in this calculation omitted the value being examined so that, if it were an outlier, it would have no influence. If the value being examined is more than 2.5 standard deviations from the mean, it was not used in the rest of the calculations.\nPercent inhibition values are then calculated for each animal using the means of the vehicle and 10 mpk prednisone control groups. The individual mouse percent inhibition values are then fit to a four-parameter logistic model using the area under curve mean for each group. Since all four parameters are estimated and the lower plateau is not fixed at 0% and the upper plateau was not fixed at 100%, the ED50 and ED80 values are calculated by using an inverse calibration formula for a response equal to 50% or 80%. The designation “nd” means not determined."}, "IL-1β": {"test_system": "IL-1β", "experiment": "LPS-induced human whole blood, IL-1β release", "format": "cell-based", "procedure": "Venous blood from human donors was collected as 10 ml aliquots in tubes containing sodium heparin (BD Vacutainer from Becton Dickinson and Company, Franklin Lakes, N.Y.). Blood was added to sterile polystyrene round bottom 96-well tissue culture plates (Corning Costar) at 180 Blood was placed in a humidified 37 C incubator with 5% CO2 while compounds were prepared (nearly 60 minutes).\nCompounds were prepared from 10 mM stock solutions in dimethylsulfoxide (DMSO, Sigma-Aldrich). Stock compound was diluted in DMSO to give appropriate starting concentration then diluted serially 1/3 in DMSO (i.e. 15 μl compound+30 μl DMSO), followed by diluting each serial dilution 1/167 into vehicle solution (2% DMSO in phosphate buffered saline (Dulbecco's Phosphate Buffered Saline without calcium chloride without magnesium chloride, Invitrogen Corporation, Carlsbad Calif.)). Compound or vehicle was added to blood in 10 μl aliquots as triplicates, omitting the outside wells to minimize possible edge effects. The final highest concentration of each compound in the assay ranged from 3 to 0.3 μM. Final DMSO concentration in the assay was 0.1%. The plate containing the samples was gently vortexed to mix and replaced in the incubator. LPS stock (E. coli serotype 0111:B4, Sigma-Aldrich), stored in aliquots of 100 μg/ml in RPMI at −20° C., was diluted […] in RPMI to make a working stock solution. After 60 minutes of incubation, 10 μl of the prepared LPS working stock was added to the blood to a final concentration of 100 ng/ml. Wells to be used as negative control received RPMI media with no LPS. The plate was again gently vortexed and the plates incubated overnight for 22 hours. Following incubation, the blood was centrifuged at 1500×g for 5 minutes and the plasma removed to either freeze at −20° C. or assay for cytokine release.\nIL-1β, IFNγ and TNFα protein levels were measured using Meso Scale assay kits (Meso Scale Discovery, Gaithersburg, Md., U.S.A.). Reagents were allowed to come to room temperature. Meso Scale plates were blocked with 150 μl of Meso Scale Block B diluent, gently shaking at room temperature for 60 minutes. Plates were washed 3× with wash buffer (PBS, Invitrogen Corporation, with 0.05% Tween-20, Sigma-Aldrich). Calibrators for standard curves were prepared in human plasma/serum assay diluent as a 1/5 serial dilution to achieve final concentrations ranging from 50000 pg/ml to 3.2 pg/ml. Samples were added at 10 to 20 μl/well and calibrators were added at 20 μl/well then incubated at room temperature with gentle shaking for 2 hours. Plates were again washed 3× with wash buffer. Detection antibody was diluted in human plasma/serum antibody diluent to 1 μg/ml and added to the plate at 20 μl/well. Plates were incubated as before for 2 hours and washed again. Read Buffer T (4×) was diluted 1:1 with mqH20 to 2× concentration and 150 μl added to each well. Plates were read on the SECTOR Imager 6000 (Meso Scale Discovery) to generate raw signal values.\nIndividual sample signal values were compared to positive and negative controls (vehicle treated blood with LPS and vehicle treated blood without LPS, respectively) to generate % inhibition. Triplicate values were averaged for each donor. The values for three or four donors were averaged and graphed using 4-parameter fit curves in the LabStats plug-in for the Microsoft Excel application."}}}
{"smiles": "Cc1ncccc1NC(=O)c1ccc2c(c1)C(=O)C[C@@H]1C[C@@](O)(c3ccccc3)[C@](C)(O)C[C@@]21Cc1ccccc1", "note": "[Example 1, (4bR,6R,7R,8aS)-4b-benzyl-6,7-dihydroxy-6-methyl-N-(2-methylpyridin-3-yl)-10-oxo-7-phenyl-4b,5,6,7,8,8a,9,10-octahydrophenanthrene-2-carboxamide]", "values": [{"measurement": "ED50", "setting": "[1]; 816 h, dosing day 34 to 49, read-out: Therapeutic mCIA (ED50 dose)", "value": 0.3, "unit": "mg/kg"}, {"measurement": "Therapeutic mCIA (ED80 dose)", "setting": "[1]; dosing day 34 to 49", "value": 1.61}, {"measurement": "inhibition at 0.000137174 µM", "setting": "IL-1β; Homo sapiens, 0.137174 nM, mean of donors", "value": -0.94, "unit": "%"}, {"measurement": "inhibition at 0.000411523 µM", "setting": "IL-1β; Homo sapiens, 0.411523 nM, mean of donors", "value": -1.08, "unit": "%"}, {"measurement": "inhibition at 0.00123457 µM", "setting": "IL-1β; Homo sapiens, 1.234568 nM, mean of donors", "value": 1.18, "unit": "%"}, {"measurement": "inhibition at 0.0037037 µM", "setting": "IL-1β; Homo sapiens, 3.703704 nM, mean of donors", "value": 5.14, "unit": "%"}, {"measurement": "inhibition at 0.0111111 µM", "setting": "IL-1β; Homo sapiens, 11.11111 nM, mean of donors", "value": 15.4, "unit": "%"}, {"measurement": "inhibition at 0.0333333 µM", "setting": "IL-1β; Homo sapiens, 33.33333 nM, mean of donors", "value": 26.4, "unit": "%"}, {"measurement": "inhibition at 0.1 µM", "setting": "IL-1β; Homo sapiens, 100 nM, mean of donors", "value": 37.6, "unit": "%"}, {"measurement": "inhibition at 0.3 µM", "setting": "IL-1β; Homo sapiens, 300 nM, mean of donors", "value": 38, "unit": "%"}, {"measurement": "level of inhibition of IL-1", "setting": "IL-1β; ex vivo LPS-stimulated human whole blood, extent of inhibition, concentration not given", "value": 38, "unit": "%"}]}
